The text below walks through data of patent US11987588B2, “Modulators of the beta-3 adrenergic receptor useful for the treatment or prevention of heart failure and disorders related thereto” (Arena Pharmaceuticals, Inc., priority 2017, dated 2024).

Chain of Beta-3 Adrenergic Receptor (P13945 whole entry, species assumed): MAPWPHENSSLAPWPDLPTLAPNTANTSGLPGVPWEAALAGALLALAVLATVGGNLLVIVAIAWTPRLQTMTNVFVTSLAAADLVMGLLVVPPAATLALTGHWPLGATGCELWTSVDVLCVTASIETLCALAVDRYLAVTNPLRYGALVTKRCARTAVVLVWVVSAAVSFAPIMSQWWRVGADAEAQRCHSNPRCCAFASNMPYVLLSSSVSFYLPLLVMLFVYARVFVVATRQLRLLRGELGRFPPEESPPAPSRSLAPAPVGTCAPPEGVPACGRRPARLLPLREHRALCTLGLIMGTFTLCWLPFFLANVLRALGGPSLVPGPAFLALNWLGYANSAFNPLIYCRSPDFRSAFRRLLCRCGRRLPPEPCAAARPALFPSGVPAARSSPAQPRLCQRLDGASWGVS

In the assay the target is Beta-3 Adrenergic Receptor (Homo sapiens (Human), UniProt P13945). Nature of the assay: Homogeneous Time-Resolved Fluorescence (HTRF) cAMP antagonist assay, IC50 determination. To be noted: CHO-K1 cells stably expressing recombinant receptor, isoproterenol at EC90. In kind it is cell-based. The method, boiled down:
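In this functional readout, recombinant CHO-K1 cells received compound, then isoproterenol at its EC90. After 1 h at room temperature, cAMP levels were determined by HTRF using an on-plate standard curve, and IC50 values were fitted.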
Turning to `CNS(=O)(=O)c1cccc(OC[C@@H](O)CNC2COC3(CCN(S(=O)(=O)c4cccc(F)c4F)CC3)C2)c1` (stereo partly drawn) [Compound 201, 3-((2S)-3-(8-(2,3-difluorophenylsulfonyl)-1-oxa-8-azaspiro[4.5]decan-3-ylamino)-2-hydroxypropoxy)-N-methylbenzenesulfonamide], the IC50 is 17.1 nM. The figure for `CNS(=O)(=O)c1cccc(OC[C@@H](O)CN[C@H]2COC3(CCN(S(=O)(=O)c4cnc5[nH]ccc5c4)CC3)C2)c1` [Compound 506, 3-((S)-3-((R)-8-(1H-pyrrolo[2,3-b]pyridin-5-ylsulfonyl)-1-oxa-8-azaspiro[4.5]decan-3-ylamino)-2-hydroxypropoxy)-N-methylbenzenesulfonamide] is 11.9 nM; for `CNS(=O)(=O)c1cccc(OC[C@@H](O)CN[C@H]2COC3(CCN(S(=O)(=O)c4ccc5c(n4)OCC(=O)N5)CC3)C2)c1` [Compound 443, 3-((S)-2-hydroxy-3-((R)-8-(2-oxo-2,3-dihydro-1H-pyrido[2,3-b][1,4]oxazin-6-ylsulfonyl)-1-oxa-8-azaspiro[4.5]decan-3-ylamino)propoxy)-N-methylbenzenesulfonamide] it is 36.9 nM. As for `CNS(=O)(=O)c1cccc(OC[C@@H](O)CN[C@@H]2COC3(CCN(S(=O)(=O)c4ccc5ncccc5c4)CC3)C2)c1` [Compound 343, 3-((S)-2-hydroxy-3-((S)-8-(quinolin-6-ylsulfonyl)-1-oxa-8-azaspiro[4.5]decan-3-ylamino)propoxy)-N-methylbenzenesulfonamide], the IC50 worked out at 27.7 nM. In the case of `CNS(=O)(=O)c1cccc(OC[C@@H](O)CNC2COC3(CCN(S(=O)(=O)c4ccccc4-c4ccc(CN)cc4)CC3)C2)c1` (stereo partly drawn) [Compound 381, 3-((2S)-3-(8-(4′-(aminomethyl)biphenyl-2-ylsulfonyl)-1-oxa-8-azaspiro[4.5]decan-3-ylamino)-2-hydroxypropoxy)-N-methylbenzenesulfonamide], the IC50 was determined as 357 nM. On to `CNS(=O)(=O)c1cccc(OC[C@@H](O)CNC2COC3(CCN(S(=O)(=O)c4ccc(C(C)=O)cc4)CC3)C2)c1` (stereo partly drawn) [Compound 25, 3-((2S)-3-(8-(4-acetylphenylsulfonyl)-1-oxa-8-azaspiro[4.5]decan-3-ylamino)-2-hydroxypropoxy)-N-methylbenzenesulfonamide], for which the concentration for half-maximal inhibition (IC50) stood at 26 nM. The figure for `CNS(=O)(=O)c1cccc(OC[C@@H](O)CNC2COC3(CCN(S(=O)(=O)C4CCCCC4)CC3)C2)c1` (stereo partly drawn) [Compound 125, 3-((2S)-3-(8-(cyclohexylsulfonyl)-1-oxa-8-azaspiro[4.5]decan-3-ylamino)-2-hydroxypropoxy)-N-methylbenzenesulfonamide] is 78.1 nM.

For `CNS(=O)(=O)c1cccc(OC[C@@H](O)CNC2COC3(CCN(S(=O)(=O)c4cccc(-c5ccc(S(N)(=O)=O)cc5)c4)CC3)C2)c1` (stereo partly drawn) [Compound 85, 3′-(3-((S)-2-hydroxy-3-(3-(N-methylsulfamoyl)phenoxy)propylamino)-1-oxa-8-azaspiro[4.5]decan-8-ylsulfonyl)biphenyl-4-sulfonamide], the IC50 stood at 9.73 nM.

In the case of `CCOc1ccc(-c2ccc(CN)cc2)cc1S(=O)(=O)N1CCC2(CC1)CC(NC[C@H](O)COc1cccc(S(=O)(=O)NC)c1)CO2` (stereo partly drawn) [Compound 404, 3-((2S)-3-(8-(4′-(aminomethyl)-4-ethoxybiphenyl-3-ylsulfonyl)-1-oxa-8-azaspiro[4.5]decan-3-ylamino)-2-hydroxypropoxy)-N-methylbenzenesulfonamide], the IC50 was 13 nM. Turning to `CONS(=O)(=O)c1cccc(OC[C@@H](O)CNC2COC3(CCN(S(=O)(=O)c4ccc5ccccc5c4)CC3)C2)c1` (stereo partly drawn) [Compound 11, 3-((2S)-2-hydroxy-3-(8-(naphthalen-2-ylsulfonyl)-1-oxa-8-azaspiro[4.5]decan-3-ylamino)propoxy)-N-methoxybenzenesulfonamide], the IC50 stood at 15.1 nM.

With `CNS(=O)(=O)c1cccc(OC[C@@H](O)CN[C@H]2COC3(CCN(c4nccc(-c5ccccc5)n4)CC3)C2)c1` [Compound 572, 3-((S)-2-hydroxy-3-((R)-8-(4-phenylpyrimidin-2-yl)-1-oxa-8-azaspiro[4.5]decan-3-ylamino)propoxy)-N-methylbenzenesulfonamide], the IC50 is 65.6 nM. In the case of `CNS(=O)(=O)c1cccc(OC[C@@H](O)CNC2COC3(CCN(S(=O)(=O)c4cccc(-c5ccn(C)c5)c4)CC3)C2)c1` (stereo partly drawn) [Compound 76, 3-((2S)-2-hydroxy-3-(8-(3-(1-methyl-1H-pyrrol-3-yl)phenylsulfonyl)-1-oxa-8-azaspiro[4.5]decan-3-ylamino)propoxy)-N-methylbenzenesulfonamide] it was 26.5 nM; in that of `CNS(=O)(=O)c1cccc(OC[C@@H](O)CN[C@H]2COC3(CCN(S(=O)(=O)c4ccc5nccn5c4)CC3)C2)c1` [Compound 537, 3-((S)-2-hydroxy-3-((R)-8-(imidazo[1,2-a]pyridin-6-ylsulfonyl)-1-oxa-8-azaspiro[4.5]decan-3-ylamino)propoxy)-N-methylbenzenesulfonamide], 101 nM; in that of `CNS(=O)(=O)c1cccc(OC[C@@H](O)CNC2COC3(CCN(S(=O)(=O)c4cnn(-c5ccccc5)c4C)CC3)C2)c1` (stereo partly drawn) [Compound 132, 3-((2S)-2-hydroxy-3-(8-(5-methyl-1-phenyl-1H-pyrazol-4-ylsulfonyl)-1-oxa-8-azaspiro[4.5]decan-3-ylamino)propoxy)-N-methylbenzenesulfonamide], 10.8 nM. With `CN(C)CCCNS(=O)(=O)c1cccc(OC[C@@H](O)CNC2COC3(CCN(S(=O)(=O)c4ccc5c(c4)N(C)CCO5)CC3)C2)c1` (stereo partly drawn) [Compound 316, N-(3-(dimethylamino)propyl)-3-((2S)-2-hydroxy-3-(8-(4-methyl-3,4-dihydro-2H-benzo[b][1,4]oxazin-6-ylsulfonyl)-1-oxa-8-azaspiro[4.5]decan-3-ylamino)propoxy)benzenesulfonamide], the IC50 turned out to be 1940 nM.

With `CCNS(=O)(=O)c1cccc(OC[C@@H](O)CNC2COC3(CCN(S(=O)(=O)c4cnn(-c5ccccc5)c4C)CC3)C2)c1` (stereo partly drawn) [Compound 230, N-ethyl-3-((2S)-2-hydroxy-3-(8-(5-methyl-1-phenyl-1H-pyrazol-4-ylsulfonyl)-1-oxa-8-azaspiro[4.5]decan-3-ylamino)propoxy)benzenesulfonamide], the IC50 came out at 85.4 nM. The figure for `CCn1cc(S(=O)(=O)N2CCC3(CC2)C[C@@H](NC[C@H](O)COc2cccc(S(N)(=O)=O)c2)CO3)c(=O)c2ccc(F)cc21` [Compound 543, 3-((S)-3-((R)-8-(1-ethyl-7-fluoro-4-oxo-1,4-dihydroquinolin-3-ylsulfonyl)-1-oxa-8-azaspiro[4.5]decan-3-ylamino)-2-hydroxypropoxy)benzenesulfonamide] is 66.7 nM; for `CNS(=O)(=O)c1cccc(OC[C@@H](O)CNC2COC3(CCN(S(=O)(=O)c4cccc(-c5ccc(CNC(=O)C(N)=O)cc5)c4)CC3)C2)c1` (stereo partly drawn) [Compound 354, N^1-((3′-(3-((S)-2-hydroxy-3-(3-(N-methylsulfamoyl)phenoxy)propylamino)-1-oxa-8-azaspiro[4.5]decan-8-ylsulfonyl)biphenyl-4-yl)methyl)oxalamide] it is 35.2 nM.

With `CNS(=O)(=O)c1cccc(OC[C@@H](O)CN[C@@H]2COC3(CCN(S(=O)(=O)c4cc(-c5ccc(CN)cc5)ccc4OC(F)(F)F)CC3)C2)c1` [Compound 415, 3-((S)-3-((S)-8-(4′-(aminomethyl)-4-(trifluoromethoxy)biphenyl-3-ylsulfonyl)-1-oxa-8-azaspiro[4.5]decan-3-ylamino)-2-hydroxypropoxy)-N-methylbenzenesulfonamide], the IC50 is 19.5 nM. The figure for `CNS(=O)(=O)c1cccc(OC[C@@H](O)CNC2COC3(CCN(S(=O)(=O)c4ccc(CN)cc4)CC3)C2)c1` (stereo partly drawn) [Compound 391, 3-((2S)-3-(8-(4-(aminomethyl)phenylsulfonyl)-1-oxa-8-azaspiro[4.5]decan-3-ylamino)-2-hydroxypropoxy)-N-methylbenzenesulfonamide] is 446 nM; for `CNS(=O)(=O)c1cccc(OC[C@@H](O)CNC2COC3(CCN(S(=O)(=O)c4cccc(CO)c4)CC3)C2)c1` (stereo partly drawn) [Compound 390, 3-((2S)-2-hydroxy-3-(8-(3-(hydroxymethyl)phenylsulfonyl)-1-oxa-8-azaspiro[4.5]decan-3-ylamino)propoxy)-N-methylbenzenesulfonamide] it is 153 nM.

Consider `CNS(=O)(=O)c1cccc(OC[C@@H](O)CNC2COC3(CCN(S(=O)(=O)c4ccc(F)cc4)CC3)C2)c1` (stereo partly drawn) [Compound 26, 3-((2S)-3-(8-(4-fluorophenylsulfonyl)-1-oxa-8-azaspiro[4.5]decan-3-ylamino)-2-hydroxypropoxy)-N-methylbenzenesulfonamide], for which the IC50 came out at 34.1 nM. The figure for `CNS(=O)(=O)c1cccc(OC[C@@H](O)CN[C@@H]2COC3(CCN(S(=O)(=O)c4cccc(-c5ccc(OCC#N)cc5)c4)CC3)C2)c1` [Compound 297, 3-((S)-3-((S)-8-(4′-(cyanomethoxy)biphenyl-3-ylsulfonyl)-1-oxa-8-azaspiro[4.5]decan-3-ylamino)-2-hydroxypropoxy)-N-methylbenzenesulfonamide] is 15.9 nM. The figure for `CCNS(=O)(=O)c1cccc(OC[C@@H](O)CNC2COC3(CCN(S(=O)(=O)c4ccc(Br)c(C)c4)CC3)C2)c1` (stereo partly drawn) [Compound 227, 3-((2S)-3-(8-(4-bromo-3-methylphenylsulfonyl)-1-oxa-8-azaspiro[4.5]decan-3-ylamino)-2-hydroxypropoxy)-N-ethylbenzenesulfonamide] is 31.3 nM; for `CNS(=O)(=O)c1cccc(OC[C@@H](O)CN[C@@H]2COC3(CCN(S(=O)(=O)c4cc(-c5ccc(CN)cc5)ccc4OC)CC3)C2)c1` [Compound 384, 3-((S)-3-((S)-8-(4′-(aminomethyl)-4-methoxybiphenyl-3-ylsulfonyl)-1-oxa-8-azaspiro[4.5]decan-3-ylamino)-2-hydroxypropoxy)-N-methylbenzenesulfonamide] it is 11 nM.
